From publication PMC4336144, “Screening the Medicines for Malaria Venture "Malaria Box" against the Plasmodium falciparum Aminopeptidases, M1, M17 and M18” (PLoS ONE, 2015)

What was measured:
PfA-M17 [1] = molecular target: T1, PfA-M17 (Plasmodium falciparum, UniProt Q8IL11); assay: Determination of Ki values (Dixon plots, H-Leu-NHMec); assay type: biochemical; settings: for Ki: Dixon plot; for loss in inhibitory activity against PfA-M17: compared to parent MMV020750
T1 construct: made in house; host or cells: Escherichia coli
T1 sequence (Q8IL11 84-605 limits assumed): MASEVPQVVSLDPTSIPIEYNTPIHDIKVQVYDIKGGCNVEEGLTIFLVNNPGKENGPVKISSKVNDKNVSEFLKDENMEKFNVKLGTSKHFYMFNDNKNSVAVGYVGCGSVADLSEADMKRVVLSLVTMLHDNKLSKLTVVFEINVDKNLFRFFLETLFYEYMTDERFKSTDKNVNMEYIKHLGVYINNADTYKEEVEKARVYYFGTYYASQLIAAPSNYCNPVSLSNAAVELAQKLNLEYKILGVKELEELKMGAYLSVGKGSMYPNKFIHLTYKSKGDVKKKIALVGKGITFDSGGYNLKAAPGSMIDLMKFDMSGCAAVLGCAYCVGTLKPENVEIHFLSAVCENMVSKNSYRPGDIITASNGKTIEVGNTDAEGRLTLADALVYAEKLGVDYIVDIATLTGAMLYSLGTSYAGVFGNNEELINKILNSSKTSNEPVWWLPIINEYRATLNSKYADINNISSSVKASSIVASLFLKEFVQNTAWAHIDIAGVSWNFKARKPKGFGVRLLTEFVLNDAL
Procedure: (§1) MMV020750 was purchased from InterBioScreen (catalog number STOCK2S-51608) and MMV666023 was purchased from ChemBridge (catalog number 5566248). The MMV020750 derivatives 1, 2 and 3 were purchased from Ambinter (catalog numbers AMB425981, AMB2311364 and AMB8506251 respectively). 4-(4,5-Diphenyl-1H-imidazol-2-yl)benzoic acid (4) was purchased from TCI Chemicals, while 4-(4,5-diphenyl-1H-imidazol-2-yl)-N-hydroxybenzamide (5) was prepared from 4 as described (S1 Methods). Aminopeptidase activity of both PfA-M1 and PfA-M17 enzymes was determined by measuring the release of the fluorogenic leaving group, NHMec, from the fluorogenic peptide L-Leucine-7-amido-4-methylcoumarin hydrochloride (H-Leu-NHMec) (Sigma L2145). The assay protocol devised by Stack CM, et al, (J. Biol Chem, 2007) was modified and used, with the reactions were carried out at 37°C and monitored using a spectrofluorometer (BMG FLUOstar) with excitation at 355 nm and emission at 460 nm. Each enzyme was pre-incubated in 50 mM Tris pH 8.0, 2 mM CoCl2; 5% DMSO with each inhibitor for 10 min prior to the addition of substrate. Inhibitor concentration was assayed between 0 and 500 μM final for each compound, and repeated over a narrowed range if necessary. The fluorescence signal was monitored until a final steady state velocity, V, was obtained. The K i values were then evaluated using Dixon plots of 1/V versus inhibitor concentration while the substrate concentration was maintained lower than that of the Km of the enzyme.
This was a particular problem with the PfA-M17 enzyme assays where we noted that at higher concentrations of 4, a decrease in fluorescence was observed. We hypothesise that this is a result of PfA-M17 binding to the compound and quenching the intrinsic fluorescence. […] We therefore chose to analyse a reduced concentration range for 4.

PfA-M1 [2] = molecular target: T2, PfA-M1 (Plasmodium falciparum, UniProt O96935); assay: as above; assay type: biochemical; settings: Dixon plot; for Ki: read-out: Ki PfA-M1
T2 construct: made in house; host or cells: Escherichia coli
T2 sequence (O96935 195-1085 limits assumed): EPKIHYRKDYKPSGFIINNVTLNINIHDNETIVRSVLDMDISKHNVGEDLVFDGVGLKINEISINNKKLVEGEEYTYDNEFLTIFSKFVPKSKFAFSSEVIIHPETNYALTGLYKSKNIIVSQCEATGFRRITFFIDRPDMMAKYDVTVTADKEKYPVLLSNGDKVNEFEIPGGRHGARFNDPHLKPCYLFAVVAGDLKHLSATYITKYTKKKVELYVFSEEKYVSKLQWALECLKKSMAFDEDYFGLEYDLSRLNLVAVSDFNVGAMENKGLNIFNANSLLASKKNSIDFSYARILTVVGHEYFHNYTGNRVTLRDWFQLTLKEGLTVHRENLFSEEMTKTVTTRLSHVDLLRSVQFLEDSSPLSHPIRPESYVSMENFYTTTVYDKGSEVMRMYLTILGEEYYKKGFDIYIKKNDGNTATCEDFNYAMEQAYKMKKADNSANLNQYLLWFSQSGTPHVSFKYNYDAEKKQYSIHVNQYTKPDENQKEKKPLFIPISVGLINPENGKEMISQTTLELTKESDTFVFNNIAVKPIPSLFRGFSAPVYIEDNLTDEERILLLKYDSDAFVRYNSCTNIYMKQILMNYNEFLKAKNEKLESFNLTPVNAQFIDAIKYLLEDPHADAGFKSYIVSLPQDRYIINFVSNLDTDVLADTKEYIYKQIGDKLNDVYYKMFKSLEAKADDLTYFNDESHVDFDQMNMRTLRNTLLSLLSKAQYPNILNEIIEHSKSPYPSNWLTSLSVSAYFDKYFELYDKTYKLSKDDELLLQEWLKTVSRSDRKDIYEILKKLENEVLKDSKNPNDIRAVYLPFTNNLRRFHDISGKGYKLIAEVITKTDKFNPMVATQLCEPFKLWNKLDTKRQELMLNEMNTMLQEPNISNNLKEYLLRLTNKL
Procedure: as §1

PfA-M1 and/or PfA-M17 = assay: Multiplex primary screen, fluorogenic substrate Leu-Mec; assay type: biochemical, Plasmodium falciparum; settings: 100 μM compound, multiplex assay
Procedure: A multiplex enzyme assay was developed to complete the primary screen of 400 compounds that were provided to us by MMV and SCYNEXIS. Combined PfMAP (15 nM PfA-M1; 80 nM PfA-M17 and 125 nM PfM18AAP) aminopeptidase activity in the presence of a single MMV compound (100 μM solubilized in 100% dimethyl sulfoxide, DMSO, final DMSO concentration in assay = 10%) was determined by simultaneous measurement of the release of the fluorogenic leaving group, -NHMec, from L-Leucine-7-amido-4-methylcoumarin-HCl (Leu-Mec) (Sigma) as well as the hydrolysis of p-nitroanilide from the chromogenic substrate, L-Glutamic acid p-nitroanilide (Glu-pNA) (Sigma). The fluorogenic substrate records the combined activity of PfA-M1 and PfA-M17 while the p-nitroanilide substrate is specific for PfM18AAP. Reactions were carried out in 96-well microtitre plates (200 μL total volume) in 50 mM Tris-HCl pH 8.0, 2 mM CoCl2 at 37°C. Following a 10 min incubation (multi-enzyme and single compound) at 37°C, reactions were initiated by addition of both fluorogenic and chromagenic substrates. Progress curves were monitored using a FLUOstar Omega multimode reader (BMG LabTech) for 1.5 h at 37°C. As activity references, individual enzyme and multiple enzyme 'no compound' controls and 'positive inhibitor' controls (with 10% DMSO) were included in each 96 well plate assay.

PfA-M1 [3] = molecular target: T2, PfA-M1; assay: Secondary screening against individual enzyme; assay type: biochemical; settings: 100 μM compound; for reduction of PfA-M1 activity: n = 3; for PfA-M1 activity retained in the presence of compound: n = 3, of total enzyme activity
Procedure: (§2) Aminopeptidase activity of each individual enzyme in the presence of a single MMV compound (100 μM) was determined using Leu-Mec for both PfA-M1 (15 nM) and PfA-M17 (80 nM) or Glu-pNA for PfM18AAP (125 nM). Reactions were carried out in 96-well microtitre plates (200 μl total volume) in 50 mM Tris-HCl pH 8.0, 2 mM CoCl2 at 37°C. Following a 10 min incubation (enzyme and compound) at 37°C, reactions were initiated by addition of enzyme specific substrate. Progress curves were monitored using a FLUOstar Omega multimode reader (BMG LabTech) for 1.5 h at 37°C. As activity references, individual enzyme 'no compound' controls and 'positive inhibitor' controls were included in each 96 well plate assay. We applied a cut-off of < 10% activity in the presence of 100 μM compound for selection to the next phase. Compounds that were selected to proceed were then used in further assays to obtain n = 3.

PfA-M17 [4] = molecular target: T1, PfA-M17; assay: Secondary screening against individual enzyme; assay type: biochemical; settings: 100 μM compound
Procedure: as §2

COC(=O)c1ccc(-c2nc(-c3ccccc3)c(-c3ccccc3)[nH]2)cc1 [Compound 3]
Ki (PfA-M17 [1]): 275 µM
loss in inhibitory activity against PfA-M17 (PfA-M17 [1]): > 10 fold
Ki PfA-M1 (PfA-M1 [2]): micromolar range
Ki (PfA-M1 [2]): 120 µM

COc1cccc(C(=O)NC(c2ccc(C)cc2)c2cc(Cl)c3cccnc3c2O)c1 (stereo not shown) [MMV665969]
Activity (PfA-M1 and/or PfA-M17) (PfA-M1 and/or PfA-M17): R

COc1ccc(C=C2SC(=N)N(c3ccccc3OC)C2=O)cc1 [MMV666691]
Activity (PfA-M1 and/or PfA-M17) (PfA-M1 and/or PfA-M17): R

CN(C)c1ccc(C=Cc2nc(=O)c3ccccc3o2)cc1 [MMV006309]
Activity (PfA-M1 and/or PfA-M17) (PfA-M1 and/or PfA-M17): R

COc1ccc2c(c1)OC(O)(C(F)(F)C(F)(F)F)CC2=O (stereo not shown) [MMV007839]
Activity (PfA-M1 and/or PfA-M17) (PfA-M1 and/or PfA-M17): R

Cc1cccc(N2C(=O)C3C(C2=O)C2(c4ccccc4)C(=O)C3(c3ccccc3)C(c3ccc4c(c3)OCO4)=C2c2ccc3c(c2)OCO3)c1 (stereo not shown) [MMV007228]
reduction of PfA-M1 activity (PfA-M1 [3]): 89%
Activity (PfA-M1 and/or PfA-M17) (PfA-M1 and/or PfA-M17): R

O=C(NO)c1ccc(-c2nc(-c3ccccc3)c(-c3ccccc3)[nH]2)cc1 [Compound 5, 4-(4,5-diphenyl-1H-imidazol-2-yl)-N-hydroxybenzamide]
Ki (PfA-M17 [1]): 187 µM
loss in inhibitory activity against PfA-M17 (PfA-M17 [1]): > 10 fold
Ki PfA-M1 (PfA-M1 [2]): micromolar range
Ki (PfA-M1 [2]): 34 µM

COc1ccc(C(=O)NC(c2ccc(Cl)cc2Cl)c2cc(Cl)c3cccnc3c2O)cc1 (stereo not shown) [MMV666054]
reduction of PfA-M1 activity (PfA-M1 [3]): 87%
Activity (PfA-M1 and/or PfA-M17) (PfA-M1 and/or PfA-M17): R

COc1cc(-c2nc(-c3ccc(Sc4ccccc4)cc3)c(-c3ccccc3)[nH]2)cc(OC)c1O [MMV007273]
PfA-M1 activity retained in the presence of compound (PfA-M1 [3]): ~75%
Activity (PfA-M1 and/or PfA-M17) (PfA-M1 and/or PfA-M17): R

Cc1ccc(-c2cc(C(=O)Nc3ccc(S(=O)(=O)N4CCCCC4)cc3)[nH]n2)c(O)c1 [MMV665906]
Activity (PfA-M1 and/or PfA-M17) (PfA-M1 and/or PfA-M17): R

Cc1ccnc(NC(c2cccc(OCc3ccccc3)c2)c2ccc3cccnc3c2O)c1 (stereo not shown) [MMV000720]
Activity (PfA-M1 and/or PfA-M17) (PfA-M1 and/or PfA-M17): R

O=C(Nc1ccc(-c2nc3cc4ccccc4cc3[nH]2)cc1)c1cccc(Br)c1 [MMV019241]
Activity (PfA-M1 and/or PfA-M17) (PfA-M1 and/or PfA-M17): R

CC(C)C[C@H](NC(=O)[C@@H](O)[C@H](N)Cc1ccccc1)C(=O)O [Bestatin, reference compound]
PfA-M17 activity, single dose secondary screen (PfA-M17 [4]; n = 1): no neutral aminopeptidase activity is detectable
PfA-M17 activity retained in the presence of compound (PfA-M17 [4]; n = 3): no neutral aminopeptidase activity is detectable
PfA-M1 activity, single dose secondary screen (PfA-M1 [3]; n = 1): no neutral aminopeptidase activity is detectable
PfA-M1 activity retained in the presence of compound (PfA-M1 [3]): no neutral aminopeptidase activity is detectable
